Reference: the NIST ThermoML archive (doi:10.1016/j.fluid.2018.09.024)
Numbers after ± are expanded uncertainties.

Experiment: activity coefficient (dimensionless); of the first substance listed, at infinite dilution; xn = mol fraction of the nth substance listed
Settings: 101.33 kPa, Liquid, Chromatography, x1 = 0

SMILES	activity coefficient (318.15 K)	activity coefficient (328.15 K)	activity coefficient (338.15 K)	activity coefficient (348.15 K)	activity coefficient (358.15 K)	activity coefficient (368.15 K)	activity coefficient (378.15 K)
CCC[N+](=O)[O-] [1-nitropropane] + CCCCCCCCCCCC[N+](C)(C)CCOc1ccccc1.O=S(=O)([N-]S(=O)(=O)C(F)(F)F)C(F)(F)F	0.722 ± 0.048	0.747 ± 0.049	0.77 ± 0.05	0.793 ± 0.052	0.815 ± 0.053	0.837 ± 0.054	–
CCCCCC [hexane] + CCCCCCCCCCCC[N+](C)(C)CCOc1ccccc1.O=S(=O)([N-]S(=O)(=O)C(F)(F)F)C(F)(F)F	2.91 ± 0.2	2.99 ± 0.2	3.06 ± 0.21	3.15 ± 0.21	3.21 ± 0.22	3.28 ± 0.22	–
c1ccncc1 [pyridine] + CCCCCCCCCCCC[N+](C)(C)CCOc1ccccc1.O=S(=O)([N-]S(=O)(=O)C(F)(F)F)C(F)(F)F	0.278 ± 0.03	0.296 ± 0.031	0.313 ± 0.031	0.33 ± 0.032	0.346 ± 0.032	0.363 ± 0.033	–
C#CCCC [1-pentyne] + CCCCCCCCCCCC[N+](C)(C)CCOc1ccccc1.N#C[N-]C#N	–	1.47 ± 0.1	1.53 ± 0.1	1.6 ± 0.11	1.66 ± 0.11	1.73 ± 0.12	1.79 ± 0.12
CCOC(C)(C)C [2-ethoxy-2-methylpropane] + CCCCCCCCCCCC[N+](C)(C)CCOc1ccccc1.O=S(=O)([N-]S(=O)(=O)C(F)(F)F)C(F)(F)F	1.8 ± 0.12	1.87 ± 0.13	1.94 ± 0.13	2.01 ± 0.14	2.09 ± 0.14	2.16 ± 0.15	–
CO [methanol] + CCCCCCCCCCCC[N+](C)(C)CCOc1ccccc1.N#C[N-]C#N	–	0.316 ± 0.031	0.324 ± 0.032	0.332 ± 0.032	0.339 ± 0.032	0.346 ± 0.032	0.353 ± 0.032
COC(C)(C)C [2-methoxy-2-methylpropane] + CCCCCCCCCCCC[N+](C)(C)CCOc1ccccc1.N#C[N-]C#N	–	2.28 ± 0.16	2.33 ± 0.16	2.38 ± 0.16	2.43 ± 0.17	2.48 ± 0.17	2.53 ± 0.17
CCO [ethanol] + CCCCCCCCCCCC[N+](C)(C)CCOc1ccccc1.N#C[N-]C#N	–	0.411 ± 0.034	0.421 ± 0.035	0.429 ± 0.035	0.438 ± 0.035	0.446 ± 0.036	0.453 ± 0.036
CCC(=O)CC [pentan-3-one] + CCCCCCCCCCCC[N+](C)(C)CCOc1ccccc1.N#C[N-]C#N	–	0.909 ± 0.058	0.947 ± 0.06	0.981 ± 0.062	1.02 ± 0.06	1.05 ± 0.07	1.08 ± 0.07
C1CCOC1 [tetrahydrofuran] + CCCCCCCCCCCC[N+](C)(C)CCOc1ccccc1.N#C[N-]C#N	–	0.704 ± 0.047	0.726 ± 0.048	0.749 ± 0.049	0.77 ± 0.05	0.791 ± 0.051	0.81 ± 0.052
C=CCCCCC [1-heptene] + CCCCCCCCCCCC[N+](C)(C)CCOc1ccccc1.N#C[N-]C#N	–	4.19 ± 0.29	4.28 ± 0.29	4.36 ± 0.3	4.43 ± 0.3	4.51 ± 0.31	4.59 ± 0.31
CCCc1ccccc1 [propylbenzene] + CCCCCCCCCCCC[N+](C)(C)CCOc1ccccc1.N#C[N-]C#N	–	1.71 ± 0.11	1.77 ± 0.12	1.83 ± 0.12	1.89 ± 0.13	1.96 ± 0.13	2.01 ± 0.14
c1ccsc1 [thiophene] + CCCCCCCCCCCC[N+](C)(C)CCOc1ccccc1.N#C[N-]C#N	–	0.648 ± 0.044	0.674 ± 0.046	0.699 ± 0.047	0.724 ± 0.048	0.749 ± 0.049	0.773 ± 0.051
c1ccccc1 [benzene] + CCCCCCCCCCCC[N+](C)(C)CCOc1ccccc1.O=S(=O)([N-]S(=O)(=O)C(F)(F)F)C(F)(F)F	0.569 ± 0.041	0.6 ± 0.042	0.629 ± 0.043	0.658 ± 0.045	0.687 ± 0.046	0.716 ± 0.048	–
CCC(C)(C)OC [2-methoxy-2-methylbutane] + CCCCCCCCCCCC[N+](C)(C)CCOc1ccccc1.O=S(=O)([N-]S(=O)(=O)C(F)(F)F)C(F)(F)F	1.22 ± 0.08	1.29 ± 0.08	1.36 ± 0.09	1.43 ± 0.09	1.5 ± 0.1	1.56 ± 0.1	–
C1CCCCCC1 [cycloheptane] + CCCCCCCCCCCC[N+](C)(C)CCOc1ccccc1.N#C[N-]C#N	–	3.26 ± 0.22	3.29 ± 0.22	3.31 ± 0.23	3.34 ± 0.23	3.37 ± 0.23	3.39 ± 0.23
